Assay results published in US12441691B2 (Cytokinetics, Inc., priority 2020, dated 2025).
≈ marks a conversion by molar mass, not a printed value.

Columns and labels:
Assay type in all cases: physicochemical
[1] = Thermodynamic aqueous solubility (FaSSIF)
Procedure: Aqueous solubility was determined by suspending sufficient compound in relevant media to give a maximum final concentration of >10 mg/ml of the parent free-form of the compound. The suspension was equilibrated at 37° C., on a Heidolph plate shaker set to 750 rpm for 24 hours. The pH of the saturated solution was then measured, and the suspension filtered through a glass fibre C filter (particle retention 1.2 μm) and diluted appropriately. Quantitation was by HPLC with reference to a standard solution of approximately 0.15 mg/ml in DMSO. Different volumes of the standard, diluted and undiluted sample solutions were injected. The solubility was calculated using the peak areas determined by integration of the peak found at the same retention time as the principal peak in the standard injection.

[2] = Gravimetric vapour sorption (GVS); conditions: for GVS mass change / GVS water uptake, mol equivalents of water: between 0 and 90% RH, 25° C.; for XRPD after GVS analysis: form after GVS measurement
Procedure: Sorption isotherms were obtained using a SMS DVS Intrinsic moisture sorption analyser, controlled by DVS Intrinsic Control software. The sample temperature was maintained at 25° C. by the instrument controls. The humidity was controlled by mixing streams of dry and wet nitrogen, with a total flow rate of 200 ml/min. The relative humidity was measured by a calibrated Rotronic probe (dynamic range of 1.0-100% RH), located near the sample. The weight change, (mass relaxation) of the sample as a function of % RH was constantly monitored by a microbalance (accuracy ±0.005 mg).
Typically, 5-30 mg of sample was placed in a tared mesh stainless steel basket under ambient conditions. The sample was loaded and unloaded at 40% RH and 25° C. (typical room conditions). A moisture sorption isotherm was performed as outlined below (2 scans per complete cycle). The standard isotherm was performed at 25° C. at 10% RH intervals over a 0-90% RH range. Typically, a double cycle (4 scans) was carried out. Data analysis was carried out within Microsoft Excel using the DVS Analysis Suite.
The sample was recovered after completion of the isotherm and re-analysed by XRPD.

[3] = Water determination by Karl Fischer titration (KF)
Procedure: The water content of each sample was measured on a Metrohm 874 Oven Sample Processor at 150° C. with 851 Titrano Coulometer using Hydranal Coulomat AG oven reagent and nitrogen purge. Weighed solid samples were introduced into a sealed sample vial. Approximately 10 mg of sample was used per titration and duplicate determinations were made. […] Data collection and analysis were performed using Tiamo software.

[4] = Static storage stability of crystalline form by XRPD

With `CC[C@H](C)[C@H]1C(=O)Nc2cncc(F)c2CN1C(N)=O` [Crystalline Form I, (S)-3-((S)-sec-Butyl)-6-fluoro-2-oxo-1,2,3,5-tetrahydro-4H-pyrido[3,4-e][1,4]diazepine-4-carboxamide] the “XRPD of solid residues” value ([1]; solid residues after thermodynamic solubility in FaSSIF (37° C.)) was “Form I”, the solubility thermodynamic at 24 h ([1]; thermodynamic from solid, FaSSIF, 37° C., equilibrated 24 hours) was 460 µg/mL (≈ 1640 µM) and the GVS mass change [2] was 0.29% Mass change between 0 and 90% RH. The “GVS water uptake, mol equivalents of water” value [2] was 0.04 mol. equivalents water, the “XRPD after GVS analysis” value [2] was “Unchanged” and the KF water content [3] was 0.1% water.

In the case of `CC[C@H](C)[C@H]1C(=O)Nc2cncc(F)c2CN1C(N)=O` [Form I], the “Hygroscopicity by GVS” value ([2]; 0-90% RH) is reported as “slightly hygroscopic”, the GVS mass change [2] is reported as 0.29% and the “GVS water uptake, mol equivalents of water” value [2] is reported as 0.04 mol. equivalents water. The “XRPD after GVS analysis” value [2] was “unchanged”, the “Static storage, XRPD” value ([4]; 25° C./97% RH (one week for Form I)) was “unchanged” and the “Static storage, XRPD” value ([4]; 40° C./75% RH, 7 days (one week)) was “unchanged”. The KF water content [3] was 0.1%.
